Results: patent publication EP4772509A1, “KINESIN KIF18A INHIBITOR, AND APPLICATION THEREOF” (Shanghai Apeiron Therapeutics Company Limited, priority 2023, dated 2025)
pIC50: −log10 of the molar value. Read-outs that look alike come from different tables or passages of the source.

Key:
HT29 cells = experiment: CyQuant cell proliferation activity test; format: cell-based; conditions: HT29 at 2000 cells per well, 3 days, 0.2% DMSO, XLFIT
Procedure: Materials and Cells: HT29 cells were purchased from Nanjing Cobioer Biosciences Co., Ltd.; RPMI-1640 medium, fetal bovine serum, Trypsin-EDTA (0.25%), 96-well plates, and CyQuant reagents were purchased from ThermoFisher (USA); DMSO was purchased from SIGMA (USA).
Cell Culture: HT29 cells were cultured with RPMI-1640 containing 10% fetal bovine serum under the condition of 37°C and 5% CO2. Only cells in the logarithmic growth phase could be used for the test.
Cell Proliferation Activity Test: CyQuant reagent was used to detect the proliferation inhibitory activity of compounds on HT29 cells. The cell density was adjusted, and 100 µL per well was inoculated into a 96-well plate (HT29 at 2000 cells per well), then incubated overnight at 37°C and 5% CO2. Add compounds of various target concentrations (initial concentration of 3000 nM, 3-fold dilution, 9 concentration gradients), and make the DMSO content 0.2%. The cell plate was incubated at 37°C in 5% CO2 for 3 days. CyQuant reagent was added and incubated for 1 h. The plates were read by Envision, and IC50 was calculated using XLFIT.

OVCAR3 cells = experiment: Cell proliferation activity test (CyQUANT Direct); format: cell-based; conditions: 3 days, 0.2% DMSO, CyQUANT fluorescence
In short: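 OVCAR3 cells in RPMI-1640 with 10% FBS were seeded, then treated overnight later with compound at final 0–10 µM (0.2% DMSO) for 3 days at 37°C, 5% CO2. Proliferation was read as CyQUANT Direct fluorescence after 60 min at 37°C.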

[1] = target: T1, Human KIF18A (amino acid sequence 1-417) (Homo sapiens, UniProt Q8NI77); experiment: Enzymatic activity test (ADP-Glo, microtubule-stimulated ATPase); format: biochemical; conditions: 60 µg/mL microtubules, 25 µM ATP, 2.5 nM KIF18A protein, 120 min at ambient temperature, chemiluminescence; for pIC50: read-out: KIF18A IC50
T1 construct: purchased Viva Biotech (Shanghai) Ltd
T1 sequence (Q8NI77 1-417): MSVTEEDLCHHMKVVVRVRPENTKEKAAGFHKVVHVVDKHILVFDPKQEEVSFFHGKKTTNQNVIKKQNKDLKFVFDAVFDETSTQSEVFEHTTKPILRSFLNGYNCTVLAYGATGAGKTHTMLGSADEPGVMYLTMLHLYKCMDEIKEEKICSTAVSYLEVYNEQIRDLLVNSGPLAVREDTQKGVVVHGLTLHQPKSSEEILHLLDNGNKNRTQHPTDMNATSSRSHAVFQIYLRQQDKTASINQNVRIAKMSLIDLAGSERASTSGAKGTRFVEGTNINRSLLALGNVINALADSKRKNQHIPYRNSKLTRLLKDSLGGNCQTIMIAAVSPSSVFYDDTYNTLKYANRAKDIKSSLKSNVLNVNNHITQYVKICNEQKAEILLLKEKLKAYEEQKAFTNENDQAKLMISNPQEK
In short: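 Compounds (0-10 µM final, from 10 mM DMSO stock) were incubated 120 min at room temperature with 2.5 nM KIF18A 1-417, 25 µM ATP and 60 µg/mL microtubules. ATPase output was measured as ADP via ADP-Glo luminescence.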

Row | pIC50 [1] | pIC50 (HT29 cells; read-out: HT-29 IC50) | pIC50 (OVCAR3 cells) | Molecule | pIC50 (HT29 cells; Homo sapiens, HT-29, 72 h) | pIC50 (OVCAR3 cells; Homo sapiens, OVCAR-3, 72 h) | IC50 ([1]; KIF18A IC50 nM)
1 | 7.29 | 7.59 | 7.39 | N-((1^3R,Z)-1^4,1^4-difluoro-5^1-hydroxy-2^6-methyl-4-oxo-5^2,5^3-dihydro-5^1H-3-aza-2(2,4)-pyrimidin-1(1,3),6(1,4)-dipiperi din-5(4,5)-indenoheterocyclonon-8-en-5^7-yl)-2-hydroxyethane-1-sulfonamide [Example 7] | – | – | –
2 | – | – | – | COc1cc2nc(n1)N1CCC(F)(F)C(C=CCc3cccc(c3)-c3cc(NS(=O)(=O)CCO)ccc3C(=O)N2)C1 (stereo not drawn) [Example 54, N-(1^4,1^4-difluoro-2^6-methoxy-4-oxo-3-aza-2(2,4)-pyrimidin-1(1,3)-piperidin-5(1,2),6(1,3)-diphenylheterocyclonon-8-en-5^4-yl)-2-hydroxyethane-1-sulfonamide] | < 5.52 | 6.06 | 1560 nM
3 | 7.36 | – | – | Cc1cc2nc(n1)N1CCC(F)(F)C(/C=C/CC3CCN(CC3)c3cc(NS(=O)(=O)CCO)c4c(c3C(=O)N2)OCC4=O)C1 (stereo not drawn) [Example 14A, N-(1^4,1^4-difluoro-2^6-methyl-5^3,4-dioxo-5^2,5-dihydro-3-aza-2(2,4)-pyrimidin-1(1,3),6(1,4)-dipiperidin-5(7,6)-benzofurancyclononane-8-en-5^4-yl)-2-hydroxyethane-1-sulfonamide] | 6.08 | 6.20 | –
4 | 7.22 | – | – | Cc1cc2nc(n1)N1CCC(F)(F)C(C=CCC3=CC=C(S3)c3cc(NS(=O)(=O)CCO)ccc3C(=O)N2)C1 (single isomer, unassigned) [Example 57A, N-(1^4,1^4-difluoro-2^6-methyl-4-oxo-3-aza-2(2,4)-pyrimidin-1(1,3)-piperidin-6(2,5)-thiophene-5(1,2)-benzoazacyclon-8-en-5^4-yl)-2-hydroxyethane-1-sulfonamide] | 7.41 | 6.94 | –
5 | 6.46 | – | – | Cc1cc2nc(n1)N1CCC(F)(F)[C@@H](CCCC3CCN(CC3)c3cc(NS(=O)(=O)CCO)ccc3-n3cc-2nn3)C1 [Example 85, N-((1^3S,Z)-1^4,1^4-difluoro-2^6-methyl-3^1H-2(2,4)-pyrimidin-1(1,3),5(1,4)-dipiperidin-3(4,1)-triazole-4(1,2)-benzylcyclooctyl-4^4-yl)-2-hydroxyethane-1-sulfonamide] | 7.12 | 7.22 | –
6 | 6.88 | 7.54 | 7.51 | N-((3^4Z,7E)-1^4,1^4-difluoro-2^6-methyl-3^1H-2(2,4)-pyrimidin-1(1,3),5(1,4)-dipiperidin-3(4,1)-triazole-4(1,2)-benzocyclooct-7 -en-4^4-yl)-2-hydroxyethane-1-sulfonamide [Example 81D] | – | – | –
7 | 7.32 | 7.37 | 7.43 | N-(1^4,1^4-difluoro-2^6-methyl-5^1,4-dioxo-5^1,5^2,5^3,5^4-tetrahydro-3-aza-2(2,4)-pyrimidin-1(1,3),6(1,4)-dipiperidin-5(5,6)-in denoheterocyclonon-8-en-5^8-yl)-2-hydroxyethane-1-sulfonamide [Example 8] | – | – | –
8 | 6.73 | – | – | Cc1cc2nc(n1)N1CCC(F)(F)C(CCCc3ccc(nc3)-c3cc(NS(=O)(=O)CCO)ccc3C(=O)N2)C1 (stereo not drawn) [Example 49, N-(1^4,1^4-difluoro-2^6-methyl-4-oxo-3-aza-2(2,4)-pyrimidin-6(2,5)-pyridin-1(1,3)-piperidin-5(1,2)-phenylheterocyclononane-5^4-yl)-2-hydroxyethane-1-sulfonamide] | 5.88 | 5.97 | –
9 | 6.28 | 6.17 | 6.30 | N-((3^4Z,7E)-1^4,1^4-difluoro-2^6-methyl-3^1H-2(2,4)-pyrimidin-1(1,3),5(1,4)-dipiperidin-3(4,1)-triazole-4(1,2)-benzocyclooct-7 -en-4^4-yl)-2-hydroxyethane-1-sulfonamide [Example 81C] | – | – | –
10 | 6.68 | 6.86 | 6.86 | Cc1cc2nc(n1)N1CCC(F)(F)C(/C=C/CC3CCN(CC3)c3cc(NS(=O)(=O)CCO)c4ccccc4c3C(=O)N2)C1 (single isomer, unassigned) [Example 1D, (trans)-N-(1^4,1^4-difluoro-2^6-methyl-4-oxo-3-aza-2(2,4)-pyrimidin-1(1,3),6(1,4)-dipiperidin-5(1,2)-naphthacyclonon-8-en-5 ^4-yl)-2-hydroxyethane-1-sulfonamide] | – | – | –
11 | 6.37 | – | – | COC(=O)c1cc2c(cc1NS(=O)(=O)CCO)N1CCC(C/C=C/C3CN(CCC3(F)F)c3nc(C)cc(n3)-c3cn-2nn3)CC1 (stereo not drawn) [Example 92A, methyl(3^4Z,7E)-1^4,1^4-difluoro-4^4-((2-hydroxyethyl)sulfonamido)-2^6-methyl 3^1H-2(2,4)-pyrimidin-1(1,3),5(1,4)-dipiperidin-3(4,1)-triazole-4(1,2)-benzocyclooct-7-en-4^5carboxylate] | 6.81 | 6.85 | –
12 | 6.26 | 6.17 | 6.17 | Cc1cc2nc(n1)N1CCC(F)(F)C(C=CCC3CCN(CC3)c3cc(NS(=O)(=O)CCO)c4c(c3C(=O)N2)CCC4=O)C1 (single isomer, unassigned) [Example 2D, N-(1^4,1^4-difluoro-2^6-methyl-5^1,4-dioxo-5^2,5^3-dihydro-5^1H-3-aza-2(2,4)-pyrimidin-1(1,3),6(1,4)-dipiperidin-5(4,5)-indenoheterocyclonon-8-en-5^7-yl)-2-hydroxyethane-1-sulfonamide] | – | – | –

Row | Molecule | pIC50 [1] | pIC50 (HT29 cells; read-out: HT-29 IC50) | pIC50 (OVCAR3 cells) | pIC50 (HT29 cells; Homo sapiens, HT-29, 72 h) | pIC50 (OVCAR3 cells; Homo sapiens, OVCAR-3, 72 h) | IC50 ([1]; KIF18A IC50 nM)
13 | Cc1cc2nc(n1)N1CCC(F)(F)C(/C=C/CC3CCN(CC3)c3cc(NS(=O)(=O)CCO)c(C(=O)C4CC4)cc3-n3cc-2nn3)C1 (stereo not drawn) [Example 89, N-((3^4Z,7E)-4^5-(cyclopropanecarbonyl)-1^4,1^4-difluoro-2^6-methyl-3^1H-2(2,4)-pyrimidin-1(1,3),5(1,4)-dipiperidin-3(4,1) -triazole-4(1,2)-benzocyclooct-7-en-4^4-yl)-2-hydroxyethane-1-sulfonamide] | 5.77 | – | – | 6.76 | 6.77 | –
14 | Cc1cc2nc(n1)N1CCC(F)(F)[C@@H](CCCC3CCN(CC3)c3cc(NS(=O)(=O)CCO)c4c(c3C(=O)N2)CCC4=O)C1 [Example 10, N-((1^3S)-1^4,1^4-difluoro-2^6-methyl-5^1,4-dioxo-5^2,5^3-dihydro-5^1H-3-aza-2(2,4)-pyrimidin-1(1,3),6(1,4)-dipiperidin-5(4,5) -indenobicyclononane-5^7-yl)-2-hydroxyethane-1-sulfonamide] | 7.37 | – | – | 7.41 | 7.44 | –
15 | Cc1cc2nc(n1)N1CCC(F)(F)C(C=CCc3ccc(cc3)-c3cc(NS(=O)(=O)CCO)ccc3C(=O)N2)C1 (stereo not drawn) [Example 55, N-(1^4,1^4-difluoro-2^6-methyl-4-oxo-3-aza-2(2,4)-pyrimidin-1(1,3)-piperidin-5(1,2),6(1,4)-diphenylheterocyclonon-8-en-5^4-yl)-2-hydroxyethane-1-sulfonamide] | 7.06 | – | – | 7.54 | 7.52 | –
16 | CC(=O)c1cc2c(cc1NS(=O)(=O)CCO)N1CCC(C/C=C/C3CN(CCC3(F)F)c3nc(C)cc(n3)-c3cn-2nn3)CC1 (racemic) [Example 88, N-((3^4Z,7E)-4^5-acetyl-1^4,1^4-difluoro-2^6-methyl-3^1H-2(2,4)-pyrimidin-1(1,3),5(1,4)-dipiperidin-3(4,1)-triazole-4(1,2)-benzocyclooct-7-en-4^4-yl)-2-hydroxyethane-1-sulfonamide] | < 5.52 | – | – | < 5.52 | < 5.52 | –
17 | Cc1cc2nc(n1)N1CCC(F)(F)C(C=CCC3CCN(CC3)c3cc(NS(C)(=O)=O)c4c(c3C(=O)N2)CCC4=O)C1 (stereo not drawn) [Example 19, N-(1^4,1^4-difluoro-2^6-methyl-5^1,4-dioxo-5^2,5^3-dihydro-5^1H-3-aza-2(2,4)-pyrimidin-1(1,3),6(1,4)-dipiperidin-5(4,5)-indenoheterocyclonon-8-en-5^7-yl)-methanesulfonamide] | 7.14 | 7.32 | 7.28 | – | – | –
